The values below come from patent US20250281609A1, “COMPOSITION FOR TREATING OR PREVENTING CANCER” (ORGANOIDSCIENCES LTD., priority 2021, published 2025).

The subject of assay [1] is colorectal cancer organoids. Nature of the assay: Colorectal cancer organoid viability (growth rate and death rate). It counts as cell-based, human. As to conditions: for increase in efficacy (cancer organoid death) of the combination of the HVEM inhibitor with the HSP inhibitor compared to HVEM inhibitor alone: 72 hours after treatment, FIG. 6. On the procedure:
To evaluate whether the combination of HVEM inhibitor and HSP inhibitor exerts a synergistic effect as a cancer preventive or therapeutic agent, we conducted the following experiment. Specifically, colorectal cancer organoids were treated with either an HVEM inhibitor alone, an HSP inhibitor alone, or a combination of both. The anticancer efficacy of the combination treatment was assessed by measuring cancer organoid viability.
For HVEM inhibitor, anti-HVEM antibodies (CW10, Santa Cruz, #sc-21718; R&D Systems, #MAB356-SP) were used at 10 nM. For inhibitor of HVEM ligands, anti-BTLA antibodies (Mybiosource, #MBS633646; Adipogen, #AG-20B-0049) were used at 10 nM. For HSP inhibitors, Luminespib (AUY922, Selleck, #s1069; HSP90-targeting), Ganetespib (STA-9090, Selleck, #s1159; HSP90-targeting), Tanespimycin (17-AAG, Selleck, #s1141; HSP90-targeting), BIIB021 (Selleck, #s1175; HSP90-targeting), Onalespib (AT13387, Selleck, #s1163; HSP90-targeting), HSP990 (#s7097; Selleck, HSP90-targeting), KNK437 (#s7750; Selleck, HSP40-targeting), and VER-155008 (Selleck, #s7751; HSP70-targeting) were used.
The viability of cancer organoids was assessed through growth rate and death rate of cancer organoids as follows.

Assay [2] deals with colorectal cancer organoids xenograft tumors. Nature of the assay: Mouse tumor xenograft model using colorectal cancer organoids, humanized with PBMCs. The note with it: harvested tumor tissues, FIG. 10. It counts as in vivo. On the procedure:
Specifically, monotherapy with an HVEM inhibitor, monotherapy with a BTLA inhibitor, monotherapy with an HSP inhibitor, combination therapy with an HVEM inhibitor and an HSP inhibitor, combination therapy with a BTLA inhibitor and an HSP inhibitor, or combination therapy with an HVEM inhibitor, a BTLA inhibitor, and an HSP inhibitor was administered to a mouse tumor xenograft model using colorectal cancer organoids. In addition, since the effect of inhibitors of HVEM and its ligand requires the presence of immune cells, PBMCs were introduced into the mice bearing the xenograft tumors to generate humanized mice. The inhibitors were administered a total of four times on days 15, 18, 21, and 24 after tumor transplantation.
As an HVEM (Herpesvirus entry mediator) inhibitor, an anti-HVEM antibody (CW10, Santa Cruz, #sc-21718) was used at a dose of 1 mg/kg; as an inhibitor of the HVEM ligand, an anti-BTLA antibody (Mybiosource, #MBS633646) was used at a dose of 1 mg/kg; and as an HSP (heat shock protein) inhibitor, Luminespib (AUY922, Selleck, #s1069; targeting HSP90) was used at a dose of 0.5 mg/kg.
From day 7 after tumor implantation, tumor size was measured three times per week. After completion of the experiment, the shape of the harvested tumors was analyzed, and tumor weight was measured. […]

Where [3] appears, read: colorectal cancer organoids, increasing concentrations.

On to `C=CCNC1=C2C[C@@H](C)C[C@H](OC)[C@H](O)[C@@H](C)/C=C(\C)[C@H](OC(N)=O)[C@@H](OC)/C=C\C=C(/C)C(=O)NC(=CC1=O)C2=O` [17-AAG, Tanespimycin], for which the “increase in efficacy (cancer organoid death) of the combination of the HVEM inhibitor with the HSP inhibitor compared to HVEM inhibitor alone” value (“increase in efficacy … to HVEM inhibitor alone” below) in assay [1] (colorectal cancer organoids) is “approximately 2.9 fold”.

With `CCNC(=O)c1noc(-c2cc(C(C)C)c(O)cc2O)c1-c1ccc(CN2CCOCC2)cc1` [AUY922, Luminespib], the “increase in cancer organoid death rate, high concentration vs low concentration” value in assay [1] (100 nM or higher compared to 1 to 5 nM) was more than 3.6 fold. For the same compound, the “increase in efficacy … to HVEM inhibitor alone” value in assay [1] (colorectal cancer organoids) was not below 3.4 fold. Besides, in assay [1] (setting [3]), the “cancer organoid death rate” value was “increased cancer organoids death rate” and the “growth rate of cancer organoids over time” value is “reduced growth over time”. The “hCD8+ T cells infiltrated into the tumor tissue (IHC)” value in assay [2] is “barely detected”.

For the compound `CC(C)c1cc(-c2n[nH]c(=O)n2-c2ccc3c(ccn3C)c2)c(O)cc1O` [STA-9090, Ganetespib], the “increase in efficacy … to HVEM inhibitor alone” value in assay [1] (colorectal cancer organoids) is on record as “approximately 2.9 fold”.
